Measurements published in PubChem BioAssay AID1259408 (Genetic Toxicology Data Bank (GENE-TOX), 2018).
Active and inactive are the calls of the source. No rule for the calls is given here.

Tested on: GENE-TOX genotoxicity assays, various organisms and cells
Test: GENE-TOX mutagenicity studies
Conditions: for call: Assay Type: In vivo carcinogenicity studies, Assay Code: CCGT
[1] = Species/Cell Type: Neurospora crassa, Assay Type: Aneuploidy, chromosome aberrations, Assay Code: NEN-, Evaluation Type: Evaluation A (Pre-1980)
[2] = Species/Cell Type: Nonhuman, Evaluation Type: Evaluation A (Pre-1980)
[3] = Species/Cell Type: Salmonella typhimurium (one or more of the five standard strains: TA98, TA100, TA1535, TA1537, and TA1538), Assay Type: Histidine reverse gene mutation, Ames assay, Assay Code: SAL-, Evaluation Type: Evaluation A (Pre-1980)
[4] = Species/Cell Type: Salmonella typhimurium, Assay Type: Forward and reverse gene mutation, host-mediated assay, Assay Code: HMA-, Evaluation Type: Evaluation A (Pre-1980)
[5] = Species/Cell Type: Syrian hamster embryo (SHE) cells, Assay Type: Cell transformation, clonal assay, Assay Code: CTC-, Evaluation Type: Evaluation A (Pre-1980)
[6] = Species/Cell Type: Rodents, Sex: Male, Assay Type: Dominant lethal test, Assay Code: DLT-, Evaluation Type: Evaluation A (Pre-1980)
[7] = Species/Cell Type: Drosophila melanogaster, Assay Type: Sex-linked recessive lethal gene mutation, Assay Code: SRL+, Evaluation Type: Evaluation A (Pre-1980)
[8] = Species/Cell Type: Nonhuman, Assay Type: Sister-chromatid exchange (SCE) in vitro, Assay Code: SC2+, Evaluation Type: Evaluation B (Post-1980)
[9] = Species/Cell Type: Drosophila melanogaster, Assay Type: Sex-linked recessive lethal gene mutation, Assay Code: SRLT, Evaluation Type: Evaluation A (Pre-1980)
[10] = Species/Cell Type: Mammalian polychromatic erythrocytes, Assay Type: Micronucleus test, chromosome aberrations, Assay Code: MNT+, Evaluation Type: Evaluation B (Post-1980)
[11] = Species/Cell Type: Salmonella typhimurium (one or more of the five standard strains: TA98, TA100, TA1535, TA1537, and TA1538), Assay Type: Histidine reverse gene mutation, Ames assay, Assay Code: SALT, Evaluation Type: Evaluation A (Pre-1980)
[12] = Species/Cell Type: Vicia faba, Assay Type: Chromosome aberrations, Assay Code: VIC+, Evaluation Type: Evaluation A (Pre-1980)
[13] = Species/Cell Type: Mouse, Sex: Male, Assay Type: Sperm morphology, Assay Code: SPI-, Evaluation Type: Evaluation A (Pre-1980)
[14] = Species/Cell Type: Salmonella typhimurium (one or more of the five standard strains: TA98, TA100, TA1535, TA1537, and TA1538), Assay Type: Histidine reverse gene mutation, Ames assay, Assay Code: SAL+, Evaluation Type: Evaluation A (Pre-1980)
[15] = Species/Cell Type: Mammalian polychromatic erythrocytes, Assay Type: Micronucleus test, chromosome aberrations, Assay Code: MNT-, Evaluation Type: Evaluation B (Post-1980)

Question: For `CS(C)=O`, which mutagenic call (Species/Cell Type: Aspergillus nidulans, Assay Type: Aneuploidy, chromosome aberrations, Assay Code: ASN+, Evaluation Type: Evaluation A (Pre-1980)) is on record?
Answer: active; positive

Question: What about the mutagenic call (Species/Cell Type: Aspergillus nidulans, Assay Type: Mitotic recombination, Assay Code: ASGT, Evaluation Type: Evaluation A (Pre-1980)) of the same compound?
Answer: no conclusion

Question: And the mutagenic call (Species/Cell Type: Bacillus subtilis (H17 vs M45), Assay Type: Rec-assay, spot test, DNA effects (bacterial DNA repair), Assay Code: REWT, Evaluation Type: Evaluation A (Pre-1980))?
Answer: no conclusion

Question: And the mutagenic call (Species/Cell Type: Drosophila melanogaster, Assay Type: Aneuploidy, whole sex chromosome loss, chromosome aberrations, Assay Code: DAC-M, Evaluation Type: Evaluation A (Pre-1980))?
Answer: inactive; negative

Question: And the mutagenic call (Species/Cell Type: Drosophila melanogaster, Assay Type: Sex-linked recessive lethal gene mutation, Assay Code: SRL-, Evaluation Type: Evaluation A (Pre-1980))?
Answer: inactive; negative

Question: And the mutagenic call (Species/Cell Type: Drosophila melanogaster, Sex: Male, Assay Type: Heritable translocation test, chromosome aberrations, Assay Code: DHTT, Evaluation Type: Evaluation A (Pre-1980))?
Answer: no conclusion

Question: What about the mutagenic call (Species/Cell Type: Escherichia coli polA (W3110 vs P3478), Assay Type: Rec-assay, DNA effects (bacterial DNA repair), Assay Code: RE2-, Evaluation Type: Evaluation A (Pre-1980)) of the same compound?
Answer: inactive; negative

Question: What about the mutagenic call (Species/Cell Type: Escherichia coli polA (W3119 vs P3478), Assay Type: Rec-assay, DNA effects (bacterial DNA repair), Assay Code: RE1T, Evaluation Type: Evaluation A (Pre-1980)) of the same compound?
Answer: no conclusion

Question: And the mutagenic call (Species/Cell Type: Fischer rat embryo (RLV/1706) cells, Assay Type: Cell transformation, viral enhanced, Assay Code: CTR-, Evaluation Type: Evaluation A (Pre-1980))?
Answer: inactive; negative

Question: And the mutagenic call (Species/Cell Type: Human lymphocytes, Assay Type: Sister-chromatid exchange (SCE) in vitro, Assay Code: SCLT, Evaluation Type: Evaluation B (Post-1980))?
Answer: no conclusion

Question: What about the mutagenic call (Species/Cell Type: Human, Assay Type: Sister-chromatid exchange (SCE) in vitro, Assay Code: SC1T, Evaluation Type: Evaluation B (Post-1980)) of the same compound?
Answer: no conclusion

Question: What about the mutagenic call (Species/Cell Type: Mouse embryo (AKR/ME) cells, Assay Type: Cell transformation, Assay Code: CTK-, Evaluation Type: Evaluation A (Pre-1980)) of the same compound?
Answer: inactive; negative

Question: What about the mutagenic call [1] of the same compound?
Answer: inactive; negative

Question: What about the call [2] of the same compound?
Answer: no conclusion

Question: And the mutagenic call (Species/Cell Type: Nonhuman, Assay Type: Sister-chromatid exchange (SCE) in vitro, Assay Code: SC2-, Evaluation Type: Evaluation A (Pre-1980))?
Answer: inactive; negative

Question: What about the mutagenic call (Species/Cell Type: Nonhuman, Assay Type: Sister-chromatid exchange (SCE) in vivo, Assay Code: SC3+, Evaluation Type: Evaluation B (Post-1980)) of the same compound?
Answer: active; positive

Question: And the mutagenic call (Species/Cell Type: Rodents, Sex: Male, Assay Type: Dominant lethal test, Assay Code: DLTT, Evaluation Type: Evaluation A (Pre-1980))?
Answer: no conclusion

Question: And the mutagenic call (Species/Cell Type: Saccharomyces cerevisiae, Assay Type: Mitotic recombination or gene conversion, Assay Code: YEC+, Evaluation Type: Evaluation A (Pre-1980))?
Answer: active; positive

Question: What about the mutagenic call [3] of the same compound?
Answer: inactive; negative

Question: What about the mutagenic call [4] of the same compound?
Answer: inactive; negative

Question: What about the mutagenic call [5] of the same compound?
Answer: inactive; negative

Question: Which mutagenic call [6] does the source give for `NCC(=O)CCC(=O)O` here?
Answer: inactive; negative

Question: Which mutagenic call (Species/Cell Type: Arabidopsis species, Assay Type: Gene mutation, Assay Code: ARM+D, Dose Response: With dose response, Evaluation Type: Evaluation A (Pre-1980)) does the source give for `CN(Cc1ccccc1)N=O` here?
Answer: active; positive

Question: What about the mutagenic call [7] of the same compound?
Answer: active; positive

Question: What about the mutagenic call [8] of the same compound?
Answer: active; positive

Question: And the mutagenic call (Species/Cell Type: Salmonella typhimurium (one or more of the five standard strains: TA98, TA100, TA1535, TA1537, and TA1538), Assay Type: Histidine reverse gene mutation, Ames assay, Assay Code: SAL+*, Activation: With metabolic activation, Evaluation Type: Evaluation A (Pre-1980))?
Answer: active; positive

Question: What about the mutagenic call (Species/Cell Type: Salmonella typhimurium, Assay Type: Forward and reverse gene mutation, host-mediated assay, Assay Code: HMA+, Evaluation Type: Evaluation A (Pre-1980)) of the same compound?
Answer: active; positive

Question: Which mutagenic call (Species/Cell Type: Drosophila melanogaster, Assay Type: Aneuploidy, whole sex chromosome loss, chromosome aberrations, Assay Code: DACT, Evaluation Type: Evaluation A (Pre-1980)) does the source give for `CC[C@H](C)[C@@H]1NC(=O)CNC(=O)[C@@H]2Cc3c([nH]c4cc(O)ccc34)S(=O)C[C@H](NC(=O)CNC1=O)C(=O)N[C@@H](CC(N)=O)C(=O)N1C[C@H](O)C[C@H]1C(=O)N[C@@H]([C@@H](C)[C@@H](O)CO)C(=O)N2` (stereo partly specified) here?
Answer: no conclusion

Question: How did the mutagenic call [9] turn out when `Cc1c[nH]c(=O)[nH]c1=O` was run?
Answer: no conclusion

Question: And the mutagenic call (Species/Cell Type: Nonhuman, Assay Type: Sister-chromatid exchange (SCE) in vitro, Assay Code: SC2T, Evaluation Type: Evaluation B (Post-1980))?
Answer: no conclusion

Question: With `O=C(O)C(Cl)(Cl)Cl` as the compound, how does the mutagenic call [10] read?
Answer: active; positive

Question: And the mutagenic call [11]?
Answer: no conclusion

Question: And the mutagenic call [12]?
Answer: active; positive

Question: How did the mutagenic call (Species/Cell Type: Schizosaccharomyces pombe, Assay Type: Reverse gene mutation, Assay Code: YEZ+, Evaluation Type: Evaluation A (Pre-1980)) turn out when `N#CCCN1CC1` was run?
Answer: active; positive

Question: Which mutagenic call (Species/Cell Type: Mammalian polychromatic erythrocytes, Assay Type: Micronucleus test, chromosome aberrations, Assay Code: MNTT, Evaluation Type: Evaluation A (Pre-1980)) does the source give for `Clc1cccc(-c2ccc(Cl)c(Cl)c2Cl)c1Cl` here?
Answer: no conclusion

Question: And the mutagenic call [13]?
Answer: inactive; negative

Question: What about the mutagenic call [6] of the same compound?
Answer: inactive; negative

Question: What about the mutagenic call [5] of the same compound?
Answer: inactive; negative

Question: Which results are given for `CCCCN(COC(C)=O)N=O`?
Answer: mutagenic call [14]: active; positive; mutagenic call (Species/Cell Type: Syrian hamster embryo (SHE) cells, Assay Type: Cell transformation, clonal assay, Assay Code: CTC+, Evaluation Type: Evaluation A (Pre-1980)): active; positive

Question: For `Nc1cccc(Cl)c1`, which mutagenic call [13] is on record?
Answer: inactive; negative

Question: With `O=C(O)c1ccccc1N=Nc1ccc(N(CCCl)CCCl)cc1` as the compound, how does the mutagenic call [7] read?
Answer: active; positive

Question: `OC[C@@H](O)[C@@H](O[C@H]1O[C@H](CO)[C@@H](O)[C@H](O)[C@H]1O)[C@H](O)[C@@H](O)CO` was tested. Which mutagenic call [15] did it give?
Answer: inactive; negative

Question: Which mutagenic call [1] does the source give for `O=C1NC(=O)C(=O)C(=O)N1` here?
Answer: inactive; negative

Question: With `FC1(F)C(F)(F)C(F)(F)C1(F)F` as the compound, how does the mutagenic call [9] read?
Answer: no conclusion

Question: Which mutagenic call (Species/Cell Type: Bacillus subtilis (H17 vs M45), Assay Type: Rec-assay, spot test, DNA effects (bacterial DNA repair), Assay Code: REW+, Evaluation Type: Evaluation A (Pre-1980)) does the source give for `[Cl][Hg]` here?
Answer: active; positive

Question: What about the mutagenic call (Species/Cell Type: Bacillus subtilis (H17 vs M45T), Assay Type: Rec-assay, spot test, DNA effects (bacterial DNA repair), Assay Code: REXT, Evaluation Type: Evaluation A (Pre-1980)) of the same compound?
Answer: no conclusion

Question: And the mutagenic call [8]?
Answer: active; positive

Question: What does the source list for `CCN(CC)C(=O)/C(Cl)=C(\C)OP(=O)(OC)OC`?
Answer: mutagenic call (Species/Cell Type: Hordeum vulgare (barley), Assay Type: Chromosome aberrations, Assay Code: HOC+D, Dose Response: With dose response, Evaluation Type: Evaluation A (Pre-1980)): active; positive; mutagenic call [10]: active; positive; mutagenic call [12]: active; positive

Question: `[Cl][La]([Cl])[Cl]` was tested. Which mutagenic call (Species/Cell Type: Bacillus subtilis (H17 vs M45), Assay Type: Rec-assay, spot test, DNA effects (bacterial DNA repair), Assay Code: REW-, Evaluation Type: Evaluation A (Pre-1980)) did it give?
Answer: inactive; negative

Question: How did the mutagenic call (Species/Cell Type: Bacillus subtilis (H17 vs M45T), Assay Type: Rec-assay, spot test, DNA effects (bacterial DNA repair), Assay Code: REX-, Evaluation Type: Evaluation A (Pre-1980)) turn out when `CNC(=O)Oc1ccc(C)c(C)c1` was run?
Answer: inactive; negative

Question: What about the mutagenic call (Species/Cell Type: Escherichia coli WP2, Assay Type: Tryptophan reverse gene mutation, Assay Code: WP2-, Evaluation Type: Evaluation A (Pre-1980)) of the same compound?
Answer: inactive; negative

Question: With `C#CCNC(=NCCSCc1nc[nH]c1C)NC#N` as the compound, how does the mutagenic call [15] read?
Answer: inactive; negative

Question: What does the source list for `Oc1cccc2cc3cccc(O)c3c(O)c12`?
Answer: mutagenic call (Species/Cell Type: Escherichia coli polA (W3119 vs P3478), Assay Type: Rec-assay, DNA effects (bacterial DNA repair), Assay Code: RE1+, Evaluation Type: Evaluation A (Pre-1980)): active; positive; mutagenic call (Species/Cell Type: Fischer rat embryo (RLV/1706) cells, Assay Type: Cell transformation, viral enhanced, Assay Code: CTR+, Evaluation Type: Evaluation A (Pre-1980)): active; positive; mutagenic call [15]: inactive; negative; mutagenic call (Species/Cell Type: Mouse (BALB/c-3T3) cells, Assay Type: Cell transformation, Assay Code: CTB-, Evaluation Type: Evaluation A (Pre-1980)): inactive; negative; call [2]: no conclusion; mutagenic call [3]: inactive; negative; mutagenic call [4]: inactive; negative; mutagenic call [5]: inactive; negative

Question: For `O=S(=O)(O)c1ccc(N=Nc2ccc(N=Nc3c(O)c(S(=O)(=O)O)cc4cc(S(=O)(=O)O)ccc34)c(S(=O)(=O)O)c2)cc1`, which mutagenic call [11] is on record?
Answer: no conclusion

Question: For `CCN(CCCl)CCCNc1c2ccccc2nc2c1ccc1ccccc12`, which mutagenic call (Species/Cell Type: Chinese hamster ovary (CHO) cells, Assay Type: Forward gene mutation at the HPRT locus, Assay Code: CHO+D, Dose Response: With dose response, Evaluation Type: Evaluation A (Pre-1980)) is on record?
Answer: active; positive

Question: Which mutagenic call [14] does the source give for `O=C(O)/C=C/c1ccc([N+](=O)[O-])o1` here?
Answer: active; positive
